This is an account of results in paper PMC12169679 (Journal of Medicinal Chemistry, 2025).

By EC50 is commonly meant the concentration at which the effect is half-maximal.

A short description of one data set: in vitro. The conditions noted are these: African green monkey.
In a further data set the test system is A549 cells. To be noted: cited from earlier work.
Data set [1] has as its system EBOV-GP-pseudotype virus (pEBOV).
For data set [2] the test system is unchanged. Description: microbe, parasite or virus in culture. To be noted: Zaire ebolavirus, Vero C1008, read-out: EC50 (pEBOV).

As for `CN(C)CCOc1ccc(/C(=C(/CCCl)c2ccccc2)c2ccccc2)cc1` [Toremifene, reference compound], the figures for the CC50 in “in vitro” and in the data set on A549 cells were 10 µM and 16 µM, respectively. In addition, the “SI (pEBOV) (CC50/EC50)” value in data set [1] is recorded as “d Toremifene was used as the reference of the assay EC50 = 0.17 μM (95% CI = 0.15–0.54 μM), CC50 (VeroE6 cells) = 10 μM, SI = 58.8 (lit^25: EC50 = 0.07 ± 0.05 μM, CC50 (A549 cells) = 16 μM, SI = 229)”. In data set [2], the EC50 is 0.17 µM.
